ChEMBL document CHEMBL5465560, “Selectivity Literature for EUbOPEN Chemogenomic Library” (2024)
One block for each molecule: values may come before it.

Columns and labels:
[1] = molecular target: Ephrin type-A receptor 2 (Homo sapiens) (UniProt P29317); experiment: Selectivity interaction (KinomeScan (DiscoverX)) EUB0001079a EPHA2; conditions: at 1 µM
[2] = molecular target: Mitogen-activated protein kinase kinase kinase 11 (Homo sapiens) (UniProt Q16584); experiment: Selectivity interaction (KinomeScan (DiscoverX)) EUB0001079a MAP3K11; conditions: at 1 µM
[3] = molecular target: Mitogen-activated protein kinase 4 (Homo sapiens) (UniProt P31152); experiment: Selectivity interaction (KinomeScan (DiscoverX)) EUB0000607a MAPK4; conditions: at 10 µM
[4] = molecular target: T1, Tyrosine-protein kinase Tec (Homo sapiens) (UniProt P42680); conditions: at 10 µM
T1 sequence (whole entry): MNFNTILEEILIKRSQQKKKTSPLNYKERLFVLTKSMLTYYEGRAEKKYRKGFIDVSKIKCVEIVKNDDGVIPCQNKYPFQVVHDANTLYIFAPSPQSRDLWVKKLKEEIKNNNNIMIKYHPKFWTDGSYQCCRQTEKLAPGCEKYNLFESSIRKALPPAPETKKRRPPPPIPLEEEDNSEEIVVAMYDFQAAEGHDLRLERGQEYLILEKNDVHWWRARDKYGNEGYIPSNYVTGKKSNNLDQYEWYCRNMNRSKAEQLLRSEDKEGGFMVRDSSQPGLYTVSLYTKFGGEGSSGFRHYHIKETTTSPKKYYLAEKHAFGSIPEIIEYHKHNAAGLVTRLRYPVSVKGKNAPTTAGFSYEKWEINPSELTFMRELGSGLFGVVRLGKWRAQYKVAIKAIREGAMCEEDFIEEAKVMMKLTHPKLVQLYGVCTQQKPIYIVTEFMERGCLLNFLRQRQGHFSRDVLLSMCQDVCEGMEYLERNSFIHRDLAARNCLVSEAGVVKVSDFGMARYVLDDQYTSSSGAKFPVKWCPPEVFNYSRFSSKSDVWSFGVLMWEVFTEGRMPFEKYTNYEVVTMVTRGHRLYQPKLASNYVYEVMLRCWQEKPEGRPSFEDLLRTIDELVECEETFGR

[5] = molecular target: Mitogen-activated protein kinase 14 (Homo sapiens, UniProt Q16539); experiment: Selectivity interaction (Upstate Kinase Profiler service (Millipore)) EUB0000056c MAPK14; conditions: at 1 µM
[6] = molecular target: T2, Serine/threonine-protein kinase Sgk2 (Homo sapiens) (UniProt Q9HBY8); experiment: Selectivity interaction (Kinase panel (Invitrogen)) EUB0000639a SGK2; conditions: at 200 nM
T2 sequence (whole entry): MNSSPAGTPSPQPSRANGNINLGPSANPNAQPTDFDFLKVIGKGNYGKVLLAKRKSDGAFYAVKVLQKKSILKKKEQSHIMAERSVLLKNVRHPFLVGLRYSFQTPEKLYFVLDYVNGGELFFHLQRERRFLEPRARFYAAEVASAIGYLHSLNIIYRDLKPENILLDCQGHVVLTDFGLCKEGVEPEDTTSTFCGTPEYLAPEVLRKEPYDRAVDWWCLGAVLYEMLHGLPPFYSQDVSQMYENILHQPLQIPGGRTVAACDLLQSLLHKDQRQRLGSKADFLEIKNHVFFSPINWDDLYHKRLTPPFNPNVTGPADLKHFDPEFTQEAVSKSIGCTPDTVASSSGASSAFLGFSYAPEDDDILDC

[7] = molecular target: Serine/threonine-protein kinase PLK1 (Homo sapiens, UniProt P53350)
[8] = molecular target: Serine/threonine-protein kinase 16 (Homo sapiens, UniProt O75716); experiment: Selectivity interaction (KinomeScan (DiscoverX)) EUB0001049a STK16; conditions: at 1 µM
[9] = molecular target: Aurora kinase B (Homo sapiens, UniProt Q96GD4); experiment: Selectivity interaction (Panel of kinases, GPCRs, ion channels and transporters (enzymatic assay)) EUB0000223bCl AURKB
[10] = molecular target: Serine/threonine-protein kinase MARK2 (Homo sapiens) (UniProt Q7KZI7); experiment: Selectivity interaction (KinomeScan (DiscoverX)) EUB0000666a MARK2; conditions: at 10 µM
[11] = molecular target: T3, Serine/threonine-protein kinase TAO3 (Homo sapiens) (UniProt Q9H2K8); experiment: Selectivity interaction (KinomeScan (DiscoverX)) EUB0000666a TAOK3; conditions: at 10 µM
T3 sequence (whole entry): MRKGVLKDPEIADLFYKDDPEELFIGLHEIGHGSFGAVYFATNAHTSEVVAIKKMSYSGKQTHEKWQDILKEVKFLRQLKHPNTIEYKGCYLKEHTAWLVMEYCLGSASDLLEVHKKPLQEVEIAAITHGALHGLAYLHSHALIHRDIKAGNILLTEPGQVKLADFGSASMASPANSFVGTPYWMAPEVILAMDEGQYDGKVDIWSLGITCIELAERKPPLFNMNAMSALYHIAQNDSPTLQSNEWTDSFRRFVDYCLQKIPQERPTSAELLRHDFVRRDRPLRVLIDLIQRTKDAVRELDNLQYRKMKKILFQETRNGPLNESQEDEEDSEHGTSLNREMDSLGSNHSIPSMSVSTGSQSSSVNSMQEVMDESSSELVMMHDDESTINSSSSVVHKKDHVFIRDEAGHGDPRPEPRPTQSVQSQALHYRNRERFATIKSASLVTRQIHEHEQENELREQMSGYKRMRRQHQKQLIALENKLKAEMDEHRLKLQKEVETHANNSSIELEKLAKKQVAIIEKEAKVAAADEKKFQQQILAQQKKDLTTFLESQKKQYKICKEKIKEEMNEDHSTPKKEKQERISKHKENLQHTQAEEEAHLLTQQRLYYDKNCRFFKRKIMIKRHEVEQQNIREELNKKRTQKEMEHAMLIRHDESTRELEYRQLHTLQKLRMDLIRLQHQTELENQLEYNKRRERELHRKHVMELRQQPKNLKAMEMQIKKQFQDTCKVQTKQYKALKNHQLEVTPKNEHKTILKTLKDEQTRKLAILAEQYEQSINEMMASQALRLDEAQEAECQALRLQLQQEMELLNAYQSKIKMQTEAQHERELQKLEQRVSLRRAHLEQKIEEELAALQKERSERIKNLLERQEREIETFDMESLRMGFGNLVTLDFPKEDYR

[12] = molecular target: 4-aminobutyrate aminotransferase, mitochondrial (Homo sapiens, UniProt P80404); experiment: Selectivity interaction (GPCR panel (PDSP screen)) EUB0000311b ABAT
Sequence of 4-aminobutyrate aminotransferase, mitochondrial (P80404 whole entry): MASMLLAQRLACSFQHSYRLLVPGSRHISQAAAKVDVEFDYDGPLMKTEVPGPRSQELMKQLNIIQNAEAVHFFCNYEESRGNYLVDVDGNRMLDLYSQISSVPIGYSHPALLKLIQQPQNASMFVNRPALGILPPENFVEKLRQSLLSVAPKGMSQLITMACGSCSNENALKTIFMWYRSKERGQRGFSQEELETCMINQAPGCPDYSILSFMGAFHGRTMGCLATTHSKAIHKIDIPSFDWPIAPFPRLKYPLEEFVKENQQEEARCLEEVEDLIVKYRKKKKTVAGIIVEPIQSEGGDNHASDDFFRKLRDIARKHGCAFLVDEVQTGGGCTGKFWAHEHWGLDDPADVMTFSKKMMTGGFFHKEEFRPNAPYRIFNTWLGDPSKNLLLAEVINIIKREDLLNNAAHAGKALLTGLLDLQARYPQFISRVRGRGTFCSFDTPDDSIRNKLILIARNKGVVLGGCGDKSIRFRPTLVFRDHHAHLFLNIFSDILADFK

Sequence of Aurora kinase B (Q96GD4 whole entry): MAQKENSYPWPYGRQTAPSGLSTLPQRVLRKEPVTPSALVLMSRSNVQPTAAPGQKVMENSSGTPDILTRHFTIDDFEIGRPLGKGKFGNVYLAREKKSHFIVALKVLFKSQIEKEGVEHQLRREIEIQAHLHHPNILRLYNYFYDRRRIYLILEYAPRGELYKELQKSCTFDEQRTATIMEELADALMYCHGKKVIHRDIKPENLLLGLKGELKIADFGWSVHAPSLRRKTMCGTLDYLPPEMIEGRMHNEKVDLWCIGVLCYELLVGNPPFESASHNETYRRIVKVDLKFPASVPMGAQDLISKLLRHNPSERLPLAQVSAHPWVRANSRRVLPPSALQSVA
Sequence of Mitogen-activated protein kinase kinase kinase 11 (Homo sapiens) (Q16584 whole entry, looked up): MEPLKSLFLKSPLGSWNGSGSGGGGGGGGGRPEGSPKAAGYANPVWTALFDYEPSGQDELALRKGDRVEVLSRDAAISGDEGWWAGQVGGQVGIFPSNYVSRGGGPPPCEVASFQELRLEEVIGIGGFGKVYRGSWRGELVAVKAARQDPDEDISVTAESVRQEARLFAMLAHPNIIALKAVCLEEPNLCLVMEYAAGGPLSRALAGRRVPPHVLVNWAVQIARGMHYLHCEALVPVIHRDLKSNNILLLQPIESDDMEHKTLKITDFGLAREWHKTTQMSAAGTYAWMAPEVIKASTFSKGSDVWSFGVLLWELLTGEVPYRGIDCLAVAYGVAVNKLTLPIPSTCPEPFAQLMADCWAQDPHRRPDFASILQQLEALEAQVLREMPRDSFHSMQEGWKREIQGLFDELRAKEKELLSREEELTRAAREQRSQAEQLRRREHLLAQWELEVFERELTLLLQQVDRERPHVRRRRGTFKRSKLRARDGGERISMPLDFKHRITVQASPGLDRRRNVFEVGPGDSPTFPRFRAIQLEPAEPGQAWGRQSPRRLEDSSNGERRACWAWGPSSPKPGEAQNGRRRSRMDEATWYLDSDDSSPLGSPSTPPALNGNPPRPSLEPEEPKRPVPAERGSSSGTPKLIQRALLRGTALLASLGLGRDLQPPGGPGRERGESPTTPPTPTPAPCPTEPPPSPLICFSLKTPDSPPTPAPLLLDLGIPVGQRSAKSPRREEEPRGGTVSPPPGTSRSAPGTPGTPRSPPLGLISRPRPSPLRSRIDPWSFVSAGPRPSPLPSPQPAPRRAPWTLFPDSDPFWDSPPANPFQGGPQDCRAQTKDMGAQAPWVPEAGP
Sequence of Serine/threonine-protein kinase MARK2 (Homo sapiens) (Q7KZI7 whole entry): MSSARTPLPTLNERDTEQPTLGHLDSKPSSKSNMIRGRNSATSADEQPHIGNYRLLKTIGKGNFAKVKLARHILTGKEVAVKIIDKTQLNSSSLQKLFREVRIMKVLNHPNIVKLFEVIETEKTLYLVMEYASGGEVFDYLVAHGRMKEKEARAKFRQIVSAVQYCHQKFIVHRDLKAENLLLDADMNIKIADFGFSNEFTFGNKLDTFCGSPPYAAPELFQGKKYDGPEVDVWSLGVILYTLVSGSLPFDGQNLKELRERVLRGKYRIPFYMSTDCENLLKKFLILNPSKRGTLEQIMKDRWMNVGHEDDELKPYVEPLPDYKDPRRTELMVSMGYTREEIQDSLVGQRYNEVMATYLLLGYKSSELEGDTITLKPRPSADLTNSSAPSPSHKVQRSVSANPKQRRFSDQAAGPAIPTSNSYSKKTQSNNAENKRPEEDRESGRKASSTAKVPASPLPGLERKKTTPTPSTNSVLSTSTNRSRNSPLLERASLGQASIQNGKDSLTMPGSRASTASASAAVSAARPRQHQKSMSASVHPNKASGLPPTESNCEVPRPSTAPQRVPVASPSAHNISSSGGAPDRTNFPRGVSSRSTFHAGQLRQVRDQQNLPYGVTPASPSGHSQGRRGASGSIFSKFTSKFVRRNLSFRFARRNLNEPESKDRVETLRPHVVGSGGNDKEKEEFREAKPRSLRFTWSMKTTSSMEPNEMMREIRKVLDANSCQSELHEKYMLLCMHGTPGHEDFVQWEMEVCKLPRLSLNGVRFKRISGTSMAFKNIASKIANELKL
Sequence of Mitogen-activated protein kinase 4 (Homo sapiens) (P31152 whole entry): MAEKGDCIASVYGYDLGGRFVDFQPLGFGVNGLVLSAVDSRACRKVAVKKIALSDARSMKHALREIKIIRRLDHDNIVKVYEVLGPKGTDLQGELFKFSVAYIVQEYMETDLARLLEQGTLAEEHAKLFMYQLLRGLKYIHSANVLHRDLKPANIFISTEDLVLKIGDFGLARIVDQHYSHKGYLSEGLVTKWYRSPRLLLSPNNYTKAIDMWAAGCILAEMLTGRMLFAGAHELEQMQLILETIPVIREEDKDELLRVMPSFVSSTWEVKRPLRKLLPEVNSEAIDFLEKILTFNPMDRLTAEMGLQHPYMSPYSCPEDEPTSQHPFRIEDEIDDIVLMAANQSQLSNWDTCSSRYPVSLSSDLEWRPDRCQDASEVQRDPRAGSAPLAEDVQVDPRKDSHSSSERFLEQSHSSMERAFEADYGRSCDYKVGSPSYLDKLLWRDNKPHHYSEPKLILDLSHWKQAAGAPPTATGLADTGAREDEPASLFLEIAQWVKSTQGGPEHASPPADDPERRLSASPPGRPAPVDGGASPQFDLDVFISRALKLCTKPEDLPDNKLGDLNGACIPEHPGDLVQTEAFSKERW
Sequence of Serine/threonine-protein kinase 16 (O75716 whole entry): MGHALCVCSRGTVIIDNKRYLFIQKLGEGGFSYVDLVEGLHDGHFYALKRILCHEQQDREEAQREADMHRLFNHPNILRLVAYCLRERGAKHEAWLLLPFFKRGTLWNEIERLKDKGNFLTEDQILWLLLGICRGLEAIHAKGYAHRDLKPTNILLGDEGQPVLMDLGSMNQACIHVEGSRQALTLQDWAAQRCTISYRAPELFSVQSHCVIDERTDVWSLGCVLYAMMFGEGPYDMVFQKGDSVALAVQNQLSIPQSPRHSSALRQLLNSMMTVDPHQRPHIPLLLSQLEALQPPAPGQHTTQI
Sequence of Ephrin type-A receptor 2 (Homo sapiens) (P29317 whole entry): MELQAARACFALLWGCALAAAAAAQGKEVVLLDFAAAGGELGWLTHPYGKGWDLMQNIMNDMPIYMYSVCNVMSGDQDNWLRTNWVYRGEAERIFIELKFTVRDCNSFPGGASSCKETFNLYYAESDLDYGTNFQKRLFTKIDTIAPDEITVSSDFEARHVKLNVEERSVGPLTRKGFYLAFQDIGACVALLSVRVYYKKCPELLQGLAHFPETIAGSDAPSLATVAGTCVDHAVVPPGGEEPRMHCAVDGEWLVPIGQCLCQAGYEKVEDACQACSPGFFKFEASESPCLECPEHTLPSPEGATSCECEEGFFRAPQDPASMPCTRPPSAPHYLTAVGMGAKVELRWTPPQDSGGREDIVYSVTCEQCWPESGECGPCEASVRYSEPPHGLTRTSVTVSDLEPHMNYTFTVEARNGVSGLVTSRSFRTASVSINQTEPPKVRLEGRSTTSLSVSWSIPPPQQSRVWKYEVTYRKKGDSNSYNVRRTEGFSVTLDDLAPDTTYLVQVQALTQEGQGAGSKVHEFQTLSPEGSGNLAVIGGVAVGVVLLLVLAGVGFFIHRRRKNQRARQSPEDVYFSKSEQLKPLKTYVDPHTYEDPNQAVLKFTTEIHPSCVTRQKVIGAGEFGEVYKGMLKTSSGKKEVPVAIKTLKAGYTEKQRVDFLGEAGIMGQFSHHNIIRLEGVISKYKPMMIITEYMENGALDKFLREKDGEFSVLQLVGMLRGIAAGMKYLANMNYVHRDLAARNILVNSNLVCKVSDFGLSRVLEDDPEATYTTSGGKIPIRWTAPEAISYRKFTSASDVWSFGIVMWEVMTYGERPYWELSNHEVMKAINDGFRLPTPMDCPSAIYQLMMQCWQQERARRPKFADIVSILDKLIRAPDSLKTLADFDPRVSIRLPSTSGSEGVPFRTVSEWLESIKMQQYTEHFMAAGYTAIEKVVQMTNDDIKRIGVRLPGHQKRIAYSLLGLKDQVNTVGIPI
Sequence of Serine/threonine-protein kinase PLK1 (P53350 whole entry): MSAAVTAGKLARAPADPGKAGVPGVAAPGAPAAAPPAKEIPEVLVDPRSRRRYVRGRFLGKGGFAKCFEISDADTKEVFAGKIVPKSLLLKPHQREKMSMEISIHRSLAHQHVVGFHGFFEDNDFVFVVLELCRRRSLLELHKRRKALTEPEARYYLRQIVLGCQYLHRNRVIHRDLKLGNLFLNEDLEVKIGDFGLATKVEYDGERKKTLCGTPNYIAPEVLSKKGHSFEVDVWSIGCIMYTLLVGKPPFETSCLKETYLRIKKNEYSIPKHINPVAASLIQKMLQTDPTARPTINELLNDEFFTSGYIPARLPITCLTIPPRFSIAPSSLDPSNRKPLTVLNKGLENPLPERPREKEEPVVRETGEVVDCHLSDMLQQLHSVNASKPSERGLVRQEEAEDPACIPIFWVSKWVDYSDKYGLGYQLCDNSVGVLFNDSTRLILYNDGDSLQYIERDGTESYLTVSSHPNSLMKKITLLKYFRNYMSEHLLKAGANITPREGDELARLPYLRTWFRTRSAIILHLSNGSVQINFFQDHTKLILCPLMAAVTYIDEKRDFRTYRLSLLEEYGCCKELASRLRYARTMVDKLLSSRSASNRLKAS

SMILES: Nc1cnc(N2CCc3cc(S(=O)(=O)Nc4c(F)cc(Cl)cc4F)cc(N4CCCC4=O)c32)nc1 [TP-020n]
% of control [1]: 100%
% of control [2]: 100%

SMILES: CNC(=O)Nc1ccc(-c2nc(N3CC4CCC(C3)O4)c3cnn(C4CCC5(CC4)OCCO5)c3n2)cc1
% of control [3]: 100%

SMILES: COCC(=O)NC/C=C/c1ccc2ncnc(Nc3ccc(Oc4ccc(C)nc4)c(C)c3)c2c1 [CP-724714]
% of control [4]: 73%

% of inhibition [5]: 0%
SMILES: Cc1ccc(-c2ccc3c(ccc4sc5c(c43)NC[C@@H](C)NC5=O)n2)cn1

% of inhibition [6]: 5.25%
SMILES: CC[C@@H]1[C@H](F)C(=O)N[C@@H]1COc1nccc2cc(C(N)=O)c(OC)cc12 [ZIMLOVISERTIB]

IC50 [7]: > 10000 nM
SMILES: CCc1cccc(CC)c1NC(=O)c1nn(C)c2c1CCc1cnc(Nc3ccc(C(=O)NC4CCN(C)CC4)cc3OC(F)(F)F)nc1-2

SMILES: COc1cc(Nc2nc(C)cc(-c3cnn4nc(OC)ccc34)n2)cc(C(F)(F)F)c1
% of control [8]: 81%

SMILES: COc1cc(C(=O)N2CC[C@@H](O)[C@@H](N)C2)cc2nc(-c3cc4ccccc4n3CC3CC3)n(C)c12
pXC50 [9]: < 4.5 M

SMILES: O=C(NOC[C@H](O)CO)c1ccc(F)c(F)c1Nc1ccc(I)cc1F
% of control [10]: 100%
% of control [11]: 89%

Ki [12]: 222 nM
SMILES: CCc1ccccc1C(=O)Nc1n[nH]c2c(C)c(F)c(C3C(C#N)=C(C)N(C)C(C)=C3C#N)cc12 [BAY-3827]
